For 7 compounds, TGI results are on record in PubChem BioAssay (NCI).

For orientation: TGI means the concentration giving total growth inhibition. Low readings indicate more potent growth arrest, high ones less potent growth arrest.

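Cells were grown in 96-well plates and exposed to each compound for 48 hours at five concentrations; endpoints were interpolated linearly between bracketing concentrations, or set to the highest concentration if not reached. TGI: concentration producing complete growth inhibition.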

Some test systems named below: 786-0 renal; A549 NSCLC; BT-549 breast; HCC-2998 colon; HCT-116 colon; HOP-62 NSCLC; HT29 colon; K-562 leukemia; LOX IMVI melanoma; MDA-MB-435; MOLT-4 leukemia; NCI-H460 lung; RPMI-8226 leukemia; SK-MEL-28 melanoma; SN12C renal; SNB-19 CNS; SR leukemia; TK-10 renal; UACC-257 melanoma; HOP-18 NSCLC.
Test in all cases: DTP human tumour cell line panel, 48 h

As to `CC(C)(C)OC(=O)NC(Cc1ccc(O)cn1)C(=O)O` (stereo unspecified), the TGI in the test with 786-0 renal, in the test on A549 NSCLC, in the test on BT-549 breast, in the test with HCC-2998 colon, in the test with HCT-116 colon and in the test on HOP-62 NSCLC was more than 100 µM each time. The TGI with HT29 colon, in the test with K-562 leukemia, in the test on LOX IMVI melanoma, in the test with MDA-MB-435, with MOLT-4 leukemia and in the test with NCI-H460 lung was more than 100 µM each time. Besides, the concentration for total growth inhibition (TGI) with RPMI-8226 leukemia, in the test on SK-MEL-28 melanoma, with SN12C renal, in the test on SNB-19 CNS, in the test with SR leukemia and in the test on TK-10 renal was more than 100 µM throughout. Also, the TGI in the test with UACC-257 melanoma is more than 100 µM.

For the compound `C=CCN1COc2c(cc3c4c(cccc24)C(=O)O3)C1`, the total growth inhibition concentration (TGI) with 786-0 renal is 39.1 µM; with A549 NSCLC, more than 100 µM; with HCC-2998 colon, more than 100 µM; with HCT-116 colon it was 36.7 µM; with HOP-18 NSCLC it was more than 100 µM; in the test on HOP-62 NSCLC it was more than 100 µM. Moreover, the TGI was 51.8 µM with HT29 colon; 68.6 µM with K-562 leukemia; more than 10 µM in the test with LOX IMVI melanoma; 64.9 µM in the test on MOLT-4 leukemia; more than 100 µM in the test on NCI-H460 lung; 97.1 µM with RPMI-8226 leukemia. Also, the TGI in the test with SK-MEL-28 melanoma was 57.2 µM; in the test with SN12C renal, 35.5 µM; in the test on SNB-19 CNS, more than 100 µM; in the test on TK-10 renal it was 39 µM; in the test with UACC-257 melanoma it was 60.7 µM.

For the compound `Cc1occc1C(=S)Nc1ccc(Cl)c(/C=N/OC(C)(C)C)c1`, the concentration for total growth inhibition (TGI) is 49.9 µM with 786-0 renal; 38.6 µM in the test with A549 NSCLC; 32.2 µM in the test on BT-549 breast; 34.2 µM in the test on HCC-2998 colon; 27 µM in the test with HCT-116 colon; 45.9 µM with HOP-62 NSCLC. In addition, the concentration for total growth inhibition (TGI) was 28.5 µM with HT29 colon; more than 100 µM in the test with K-562 leukemia; 29.2 µM with LOX IMVI melanoma; 31.7 µM in the test on MDA-MB-435; 31.8 µM in the test on MOLT-4 leukemia; 29.7 µM with NCI-H460 lung. The TGI amounted to 47.8 µM in the test with RPMI-8226 leukemia; 34.4 µM in the test with SK-MEL-28 melanoma; 31.8 µM in the test with SN12C renal; 40.6 µM in the test with SNB-19 CNS; 35.6 µM with SR leukemia; 49.8 µM in the test on TK-10 renal. Besides, in the test on UACC-257 melanoma, the TGI came out at 31.7 µM.

On to `O[C@H]1[C@H](O)[C@@H](O)[C@@]2(O)CC[C@@H]1N2`, for which the total growth inhibition concentration (TGI) in the test on 786-0 renal, in the test on A549 NSCLC, in the test on BT-549 breast, in the test with HCC-2998 colon, with HCT-116 colon and with HOP-62 NSCLC was more than 100 µM throughout. Further, the TGI with HT29 colon, in the test on K-562 leukemia, with LOX IMVI melanoma, with MDA-MB-435, in the test with MOLT-4 leukemia and with NCI-H460 lung was more than 100 µM each time. Besides, the TGI with RPMI-8226 leukemia was more than 52.4 µM; in the test with SK-MEL-28 melanoma, more than 100 µM; with SN12C renal it was more than 100 µM; with SNB-19 CNS, more than 100 µM; in the test on SR leukemia, more than 100 µM; in the test on TK-10 renal, more than 100 µM. This compound also showed a TGI with UACC-257 melanoma of more than 100 µM.

As to `COc1ccc(-c2c3c(n(C4OC(COC(C)=O)C(OC(C)=O)C(OC(C)=O)C4OC(C)=O)c(=S)c2C#N)CCC3)cc1` (stereo unspecified), the total growth inhibition concentration (TGI) in the test with 786-0 renal, in the test on A549 NSCLC, with BT-549 breast, in the test with HCC-2998 colon, in the test on HCT-116 colon and with HOP-62 NSCLC was more than 100 µM throughout. For the same compound, the TGI in the test with HT29 colon, with K-562 leukemia, in the test on LOX IMVI melanoma, in the test with MDA-MB-435, with MOLT-4 leukemia and with NCI-H460 lung was more than 100 µM in each case. The concentration for total growth inhibition (TGI) in the test with RPMI-8226 leukemia, with SK-MEL-28 melanoma, in the test with SN12C renal, with SNB-19 CNS, in the test on SR leukemia and in the test on TK-10 renal was more than 100 µM in each case. The same compound registered a TGI with UACC-257 melanoma of more than 100 µM.

For the compound `CCN(CC)C1CCC(C2c3cc4c(cc3OC(N3CCOCC3)C2C)OCO4)CC1` (stereo unspecified), the TGI in the test on 786-0 renal is more than 100 µM; in the test with A549 NSCLC, more than 100 µM; with BT-549 breast it was 84.1 µM; with HCC-2998 colon, 40.3 µM; in the test on HCT-116 colon, more than 100 µM; with HOP-62 NSCLC it was more than 70.3 µM. In addition, the TGI in the test with HT29 colon is 25.7 µM; in the test on K-562 leukemia, more than 100 µM; with LOX IMVI melanoma it was more than 100 µM; with MDA-MB-435, more than 100 µM; in the test on MOLT-4 leukemia it was more than 68.2 µM; in the test with NCI-H460 lung, more than 100 µM. Moreover, the TGI was more than 55.5 µM with RPMI-8226 leukemia; more than 100 µM in the test with SK-MEL-28 melanoma; more than 100 µM with SN12C renal; more than 100 µM in the test with SNB-19 CNS; more than 100 µM in the test with SR leukemia; more than 100 µM with TK-10 renal. The same compound yielded a total growth inhibition concentration (TGI) in the test on UACC-257 melanoma of more than 100 µM.

Take `COC(=O)c1ccccc1NC(=NC1CCCCCC1)NS(=O)(=O)c1ccc(C)cc1`: the TGI with 786-0 renal, in the test with A549 NSCLC, in the test with BT-549 breast, in the test on HCC-2998 colon, in the test on HCT-116 colon and in the test on HOP-62 NSCLC was more than 100 µM throughout. The TGI in the test on HT29 colon, with K-562 leukemia, in the test on LOX IMVI melanoma, with MDA-MB-435, in the test with MOLT-4 leukemia and in the test on NCI-H460 lung was more than 100 µM each time. Also, the concentration for total growth inhibition (TGI) in the test with RPMI-8226 leukemia, in the test on SK-MEL-28 melanoma, in the test on SN12C renal, with SNB-19 CNS, with SR leukemia and in the test with TK-10 renal was more than 100 µM throughout. This compound showed a TGI in the test on UACC-257 melanoma of more than 100 µM.
